Measured values: PubChem BioAssay AID179 (DTP/NCI, 2004)
Active and inactive are the calls of the source.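 How the source made its calls: active means compounds giving half or more protection of infected cells from virus-caused growth loss, again on retest; inactive means the rest.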

Test system: CEM cells HIV-1 protection, formazan growth assay
Test: NCI AIDS Antiviral Assay
Conditions: for IC50: measured here: growth of uninfected CEM cells
Summary of the method: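 Protection of CEM cells against HIV-1 was scored from cell growth (soluble formazan) across five concentrations, with parallel uninfected cells. Lack of protection may reflect toxicity.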

O=C1c2ccccc2C(=O)c2c1ccc(O)c2O
EC50: > 72.4 µM | IC50: 42.7 µM

O=C(/C=C/c1ccccc1)/C=C/c1ccccc1
outcome: inactive

COc1ccc(-n2c(N)c(C#N)c(C#N)c2-c2ccco2)cc1
EC50: > 200 µM | IC50: > 200 µM

Nc1nc(Cl)cc2nsnc12
EC50: > 28.2 µM | IC50: > 28.2 µM

Cc1ccc(S(=O)(=O)OCCOCCOCCOCCOCCOS(=O)(=O)c2ccc(C)cc2)cc1
outcome: inactive

O=C(c1ccc(Cl)cc1Cl)N(/N=C/C=C/c1ccccc1)c1nnc(-c2ccccc2)c(-c2ccccc2)n1
EC50: > 13.2 µM | IC50: > 13.2 µM

C/C=C/C(=O)C(C)C1=CC(=O)C2=C(OC34CC[C@H](O)C(C)(C)[C@@H]3CC[C@H](C)C4(C)C2)C1=O (stereo partly specified)
outcome: inactive

N#CNC(=NCC1CCCO1)Nc1cccnc1 (stereo unspecified)
EC50: > 1020 µM | IC50: 933 µM

[N-]=[N+]=Nc1ccc2c(c1)Sc1ccccc1N2CCCCN1CCN(Cc2ccc(C(=O)c3ccc(CSCC(N)C(=O)O)cc3)cc2)CC1 (stereo unspecified)
EC50: > 200 µM | IC50: 32.4 µM

COc1cc(C(C)c2cc3c(cc2OCCO)OCO3)cc(OC)c1OC (stereo unspecified)
EC50: > 347 µM | IC50: 0.447 µM

COc1ccc2c(ccc3[nH]c4c(C)cnc(NCCCN)c4c32)c1
EC50: > 2 µM | IC50: 0.219 µM

C/C(=N\NC(N)=O)C(CN(C)C)C(c1ccccc1)c1c(O)c2ccccc2oc1=O (stereo unspecified)
EC50: > 91.2 µM | IC50: 66.1 µM

Cc1cc2c(cc1C)NC(=O)C(NC(=O)c1ccc(Cl)cc1)C=N2 (stereo unspecified)
EC50: > 200 µM | IC50: > 200 µM

O=C1CC(NC(=O)C(F)(F)F)c2c(Br)sc(N3CCOCC3)c21 (stereo unspecified)
EC50: > 200 µM | IC50: > 200 µM

COC1OC(Cn2cc([N+](=O)[O-])nc2C)C(O)C(O)C1O (stereo unspecified)
EC50: > 200 µM | IC50: > 200 µM

CS(=O)(=O)N(CCC#N)c1ccc(C=O)cc1
EC50: > 102 µM | IC50: > 102 µM

CC(=O)O[C@H]1C(N(C)C(=O)c2ccccc2)CC[C@]2(C)C3CC[C@@]4(C)C(CC(O)[C@@H]4C(C)N(C)C)[C@@H]3CCC12 (stereo partly specified)
EC50: > 25.1 µM | IC50: > 25.1 µM

Cc1cc(C)c2c(c1)CC1(Cc3c(ccc(C)c3C)C1=O)C2=O (stereo unspecified)
EC50: > 100 µM | IC50: > 100 µM

O=C(N/C(=C\c1cc(Cl)ccc1Cl)c1nc2ccc(Cl)cc2[nH]1)c1ccccc1
outcome: inactive

O=[N+]([O-])C(=C(N1CCCCC1)N1CCCCC1)/C(Cl)=C(\Cl)Br
EC50: > 200 µM | IC50: 1.29 µM

NNC(=S)NC1CC(c2ccccc2)Oc2ccccc21 (stereo unspecified)
outcome: inactive

C1=CC2CCC1CN2CCC1CNc2ccccc21 (stereo unspecified)
outcome: inactive

COCCOCCOCCOCCOCCOCCOCCOCCOCCOCCOCCOCCOCCOCCOCCOCCOCC(=O)N(CCn1cnc2nc(NC(=O)c3ccccc3)[nH]c(=O)c21)CCn1cnc2nc(NC(=O)c3ccccc3)[nH]c(=O)c21
EC50: 1.32 µM | IC50: 47.9 µM

C=CCC1[C@@H](C(C)(C)C(C(C)=O)C(=O)C(=O)OC)OC(C(C)(C)C)N1C(=O)OC (stereo partly specified)
EC50: > 63.1 µM | IC50: > 63.1 µM

N#Cc1c(N2CCCC2)ncn(-c2ccccc2)c1=S
EC50: > 200 µM | IC50: > 200 µM

C[C@@H]([C@H]1[C@H](O)C[C@@]2(C)[C@@H]3C=C[C@H]4C(C)(C)[C@@H](N(C)C)CC[C@@]45C[C@@]35CC[C@]12C)N(C)C
EC50: > 100 µM | IC50: > 100 µM

COC(=O)C/C(C(=O)OC)=C1\CCC2=C1N1CCCC1C2(CC(=O)OC)C(=O)OC (stereo unspecified)
EC50: > 162 µM | IC50: > 162 µM

CCOC(=O)/C=C(/C)Nc1nc2c(c(C(=O)OC)c1C#N)CCCC2
EC50: > 200 µM | IC50: > 200 µM

N#Cc1ccc(C2ON=C(c3ccccc3)N2C23CC4CC(CC(C4)C2)C3)cc1 (stereo unspecified)
EC50: > 200 µM | IC50: 151 µM

COC(=O)C1=C2Nc3ccccc3C[C@@]23CCN2CCC[C@@](C(C)OC(=O)C=C(C)C)(C1)C23 (stereo partly specified)
EC50: > 200 µM | IC50: 23.4 µM

CC(=O)N(O)c1ccccc1-c1ccccc1
EC50: > 200 µM | IC50: 102 µM

COC(CC[P+](c1ccccc1)(c1ccccc1)c1ccccc1)(C(=O)c1ccccc1)c1ccccc1 (stereo unspecified)
EC50: > 20 µM | IC50: 0.447 µM

O=c1c(C2=NCCC2)c(-c2ccc[nH]2)[nH]n1-c1ccccc1
EC50: > 200 µM | IC50: > 200 µM

O=c1[nH]nc(-c2ccccc2)n1/N=C\c1ccccc1
EC50: > 200 µM | IC50: > 200 µM

CCCc1cc(=O)oc2c3c(c4c(c12)OC(C)(C)C=C4)O[C@H](C)[C@@H](C)[C@@H]3OC(C)=O
EC50: 1.7 µM | IC50: 26.9 µM

COc1ccc(-c2nc(N)c(C#N)c3c2CCS(=O)(=O)c2ccc(C)cc2-3)cc1OC
EC50: > 200 µM | IC50: 11.2 µM

CC(=O)n1nc(-c2[nH]c(C)c(-c3nn(C(C)=O)c(=S)o3)c2C)oc1=S
EC50: > 50.1 µM | IC50: > 50.1 µM

CCOC(=O)NC(Nc1ccc(S(=O)(=O)Nc2nc(C)cc(C)n2)cc1)(C(=O)OCC)C(F)(F)F (stereo unspecified)
EC50: > 200 µM | IC50: > 200 µM

CC(C)=CCC[C@@H](C)C1=C(Nc2ccccc2F)C(O)=C(C)C(=O)C1=O
EC50: > 200 µM | IC50: 2.14 µM

C=COCCCOc1ccccc1
EC50: > 200 µM | IC50: > 200 µM

O=C(CCc1nnc2s/c(=C\c3ccccc3)c(=O)n12)Nc1cc(Cl)ccc1Cl
EC50: > 11.7 µM | IC50: > 11.7 µM
